Reference: patent US7482344B2, “Tricyclic steroid hormone nuclear receptor modulators” (Eli Lilly and Company, priority 2003, dated 2009)

How the values were obtained:
[1] = molecular target: T1, MR (Homo sapiens, UniProt P08235); assay: Mineralocorticoid Receptor Binding Assay (Method 1), [3H]-aldosterone competition; parameters: The full length human MR gene is cloned from a human kidney or human brain cDNA library; made in house; host or cells: SF9 insect cells (pAcHLT baculovirus transfer vector); conditions: human MR expressed in Sf9 cells, 0.5 nM [3H]-aldosterone
T1 sequence (P08235 1-984): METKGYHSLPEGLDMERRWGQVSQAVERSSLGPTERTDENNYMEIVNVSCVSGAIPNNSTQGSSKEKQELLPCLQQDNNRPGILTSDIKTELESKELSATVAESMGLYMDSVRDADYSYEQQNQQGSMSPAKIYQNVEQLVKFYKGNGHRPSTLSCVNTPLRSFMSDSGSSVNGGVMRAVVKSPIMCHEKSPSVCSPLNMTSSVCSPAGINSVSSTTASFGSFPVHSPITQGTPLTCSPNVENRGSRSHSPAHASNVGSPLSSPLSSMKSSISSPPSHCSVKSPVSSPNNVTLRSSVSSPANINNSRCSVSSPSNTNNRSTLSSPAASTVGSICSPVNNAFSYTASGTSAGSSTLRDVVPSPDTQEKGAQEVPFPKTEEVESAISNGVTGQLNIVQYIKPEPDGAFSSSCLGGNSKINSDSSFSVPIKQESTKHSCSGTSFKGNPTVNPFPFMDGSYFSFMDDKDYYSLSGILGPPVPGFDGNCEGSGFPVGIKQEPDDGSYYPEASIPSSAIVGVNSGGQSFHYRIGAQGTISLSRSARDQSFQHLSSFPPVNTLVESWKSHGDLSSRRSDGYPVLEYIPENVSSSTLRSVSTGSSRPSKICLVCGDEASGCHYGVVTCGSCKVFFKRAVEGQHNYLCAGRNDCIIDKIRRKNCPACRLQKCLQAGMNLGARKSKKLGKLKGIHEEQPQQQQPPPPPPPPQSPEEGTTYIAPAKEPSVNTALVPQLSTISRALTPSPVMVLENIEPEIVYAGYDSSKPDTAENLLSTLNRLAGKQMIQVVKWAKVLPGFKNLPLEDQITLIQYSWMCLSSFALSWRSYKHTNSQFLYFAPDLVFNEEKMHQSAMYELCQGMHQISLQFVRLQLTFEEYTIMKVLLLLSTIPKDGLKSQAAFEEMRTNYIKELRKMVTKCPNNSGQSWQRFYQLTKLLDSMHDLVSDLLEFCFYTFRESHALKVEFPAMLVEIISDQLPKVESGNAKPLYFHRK
Method: Mineralocorticoid Receptor Binding Assay (Method 1):
The full length human MR gene is cloned from a human kidney or human brain cDNA library. Briefly, using synthetic oligonucleotide primers (Eli Lilly and Company, Indianapolis) directed to nucleotides 20-54 and 3700-3666 of the human MR, polymerase chain reaction (PCR) is performed under standard conditions using a human cDNA library. The PCR reaction is performed in a final volume of 50 μl containing about 1μl of a 50× stock solution of polymerase; about 1 μl of a 50× stock solution of dNTP; about 5μl of an appropriate PCR buffer; about 1 μl of each primer; about 5 μl of a H. kidney or H. brain cDNA library; and about 36 μl of water. The reaction is allowed to denature for about 30 seconds at 95 degrees Celsius, anneal for about 30 seconds at 55 degrees Celsius, and extend for about 5 minutes at 72 degrees Celsius, the sequence being repeated for a total of about 35 cycles. The desired PCR product (3.68 Kb) is confirmed by gel electrophoresis and subsequently cut from the gel and stored at about −20 degrees Celsius until extraction. To extract the cDNA product from the agarose gel, the QIAEX II Gel Extraction protocol (QIAGEN, Inc.) is employed according to the manufacturer's instructions. Following extraction, the MR cDNA is cloned into an appropriate cloning vector (Zero Blunt TOPO PCR Cloning Kit (Invitrogen, Inc.) and a pAcHLT-baculovirus transfer vector (B.D./Pharminogen), then expressed in SF9 insect cells, essentially according to manufacturer's instructions. Sf9 cells are grown at a scale where gram quantity cell pellets are obtained for subsequent use in the MR binding assay. Harvested cell pellets are lysed by repeated freeze-thaw cycles (about 4) in a suitable lysis buffer then centrifuged at about 1×10^3G (with the supernatant being saved for future assays).
MR binding assays are performed in a final total volume of about 250 μl containing about 20-25 μg of protein and 0.5 nM of [^3H]-aldosterone plus varying concentrations of test compound or vehicle. The assay binding buffer consists of 30 mM sodium molybdate, 30 mM of TRIS-HCl, 5 mM sodium phosphate, 5 mM sodium pyrophosphate, and about 10% glycerol, pH=7.5.
Briefly, assays are prepared at RT in 96-well Falcon 3072 plates, each well containing 210 μof binding buffer, 10 μl of […], 10 μl of test compound/vehicle, and 20 μl of the resuspended receptor protein extract. Incubations are carried out at 4 degrees Celsius with shaking for about 16 hours. 200 μl aliquots of each incubation are filtered onto Millipore HA 0.45 micron 96-well filter plates, pre-moistened with cold 30 mM TRIS-HCl. The filter plates are suctioned dry with vacuum and immediately washed 3× with cold 30 mM TRIS-HCl. The plates are then punched out and the amount of receptor-ligand complex is determined by liquid scintillation counting using 4 ml of Ready Protein Plus™ liquid scintillation cocktail.

[2] = molecular target: T2, glucocorticoid receptor (Homo sapiens, UniProt P04150); assay: Glucocorticoid Receptor Binding Assay (Method 1), [3H]-dexamethasone competition in A549 cell extract; conditions: 1.86 nM [3H]-dexamethasone, read-out: GR Ki (nM) Method 1
T2 construct: host or cells: A549 human lung epithelial cells
T2 sequence (P04150 1-777): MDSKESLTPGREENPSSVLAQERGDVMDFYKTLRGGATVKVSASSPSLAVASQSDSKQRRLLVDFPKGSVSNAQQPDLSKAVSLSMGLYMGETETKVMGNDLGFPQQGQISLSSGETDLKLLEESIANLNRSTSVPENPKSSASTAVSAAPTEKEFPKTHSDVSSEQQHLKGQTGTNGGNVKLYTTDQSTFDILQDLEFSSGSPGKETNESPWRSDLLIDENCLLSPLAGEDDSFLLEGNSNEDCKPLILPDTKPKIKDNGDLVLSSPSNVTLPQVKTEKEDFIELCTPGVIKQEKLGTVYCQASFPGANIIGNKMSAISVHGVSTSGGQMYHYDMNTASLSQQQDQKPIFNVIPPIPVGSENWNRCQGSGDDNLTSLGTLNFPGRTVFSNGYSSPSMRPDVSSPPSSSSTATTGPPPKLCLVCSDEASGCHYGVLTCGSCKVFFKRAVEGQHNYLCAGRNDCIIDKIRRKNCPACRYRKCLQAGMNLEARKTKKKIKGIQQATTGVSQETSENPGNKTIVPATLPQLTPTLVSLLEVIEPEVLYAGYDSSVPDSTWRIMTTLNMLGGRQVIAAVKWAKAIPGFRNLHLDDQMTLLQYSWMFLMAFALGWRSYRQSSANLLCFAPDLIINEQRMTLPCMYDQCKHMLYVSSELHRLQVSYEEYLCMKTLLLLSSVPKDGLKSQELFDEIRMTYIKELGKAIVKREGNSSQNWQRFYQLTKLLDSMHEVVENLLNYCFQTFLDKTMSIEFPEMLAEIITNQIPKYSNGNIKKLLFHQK
Method: Glucocorticoid Receptor Binding Assay (Method 1):
A549 human lung epithelial cells (ATCC) are grown at a scale where gram quantity cell pellets are obtained. Harvested cell pellets are washed twice in cold phosphate buffered saline, centrifuged, and resuspended in cold assay binding buffer. The assay binding buffer consists of 10% glycerol, 50 mM Tris-HCl (pH7.2), 75 mM sodium chloride, 1.5 mM magnesium chloride, 1.5 mM EDTA, and 10 mM sodium molybdate. Cell suspensions were lysed via sonication, centrifuged, and the “extract” supernatant is snap frozen and stored at −80 C. until needed.
GR binding assays are performed in a final volume of 140 ul containing 50-200 ug of A549 cell extract and 1.86 nM [^3H]-dexamethasone (Amersham) plus varying concentrations of test compound or vehicle. Briefly, assays are prepared at RT in 96-well Fisher 3356 plates, each well containing 100 ul of A549 cell extract, 20 ul of [^3H]-dexamethasone, and 20 ul of test compound/vehicle. Incubations are carried out at 4 degrees Celsius for 16 hours. After incubation, 70 ul of 3× dextran-coated charcoal solution is added to each reaction, mixed, and incubated for 8 minutes at RT. 3×-dextran-coated charcoal solution consists of 250 ml assay binding buffer, 3.75 g Norit A charcoal (Sigma), and 1.25 g dextran T-70 (Amersham). Charcoal/unbound radioligand complexes are removed by centrifugation of the plate and 140 ul of supernatant from each well is transferred to another 96 well Optiplate (Packard Instruments). 200 ul of Microscint-20 scinillant (Packard Instruments) is added to each well and amount of receptor bound radioligand is determined using Packard Instruments TopCount instrument.

[3] = molecular target: T1, MR; parameters: host or cells: patients with advanced CHF; conditions: in combination with standard CHF therapy, patients suffering from advanced CHF; cited from earlier work

SMILES	Ki [1] [nM]	Ki [2] [nM]	melting point [°C]	reduced cardiac related mortality [3] [%]	reduced frequency of hospitalization [3] [%]
CC(C)n1c(=O)[nH]c2cc(C=C3c4ccccc4Sc4ccccc43)ccc21 [Example 16]	< 500	–	–	–	–
O=c1[nH]c2cc(C=C3c4ccccc4Sc4ccccc43)ccc2n1-c1cccnc1 [Example 17]	< 500	–	–	–	–
COc1cccc(C=C2c3ccccc3Cc3ccccc32)c1 [Example 18, 9-(3-Methoxy-benzylidene)-9,10-dihydro-anthracene]	< 500	< 10000	–	–	–
Oc1cccc(C=C2c3ccccc3Cc3ccccc32)c1 [Example 19, 3-(10H-Anthracen-9-ylidenemethyl)-phenol]	< 500	< 10000	195.8	–	–
CS(=O)(=O)Nc1cccc(C=C2c3ccccc3Oc3ccccc32)c1 [Example 20, N-(3-Xanthen-9-ylidenemethyl-phenyl)-methanesulfonamide]	< 500	< 1000	–	–	–
CC(=O)S[C@@H]1CC2=CC(=O)CC[C@]2(C)[C@H]2CC[C@@]3(C)[C@@H](CC[C@@]34CCC(=O)O4)[C@H]12 [spironolactone]	–	–	–	30	35
